Experimental data: ChEMBL document CHEMBL5036349, “Development of potent dual PDK1/AurA kinase inhibitors for cancer therapy: Lead-optimization, structural insights, and ADME-Tox profile” (Eur J Med Chem, 2021)

Experiments:
HEK293 = assay: Cytotoxicity against HEK293 cells at 10 uM measured after 24 to 48 hrs by Cell-titer glo assay relative to control; format: cell-based; conditions: human, hek293, 10 µM, time 24-48 hrs
[1] = Cytotoxicity against hTERT cells at 10 uM measured after 24 to 48 hrs by Cell-titer glo assay relative to control; format: cell-based; conditions: human, time 24-48 hrs
[2] = target: T1, NAD-dependent protein deacetylase sirtuin-7 (Homo sapiens) (UniProt Q9NRC8); assay: Inhibition of human recombinant SIRT7 at 10 uM incubated for 20 mins followed by mixing and measure after 30 mins by Luminescence assay relative to control; conditions: time 50.0 min
T1 sequence (whole entry): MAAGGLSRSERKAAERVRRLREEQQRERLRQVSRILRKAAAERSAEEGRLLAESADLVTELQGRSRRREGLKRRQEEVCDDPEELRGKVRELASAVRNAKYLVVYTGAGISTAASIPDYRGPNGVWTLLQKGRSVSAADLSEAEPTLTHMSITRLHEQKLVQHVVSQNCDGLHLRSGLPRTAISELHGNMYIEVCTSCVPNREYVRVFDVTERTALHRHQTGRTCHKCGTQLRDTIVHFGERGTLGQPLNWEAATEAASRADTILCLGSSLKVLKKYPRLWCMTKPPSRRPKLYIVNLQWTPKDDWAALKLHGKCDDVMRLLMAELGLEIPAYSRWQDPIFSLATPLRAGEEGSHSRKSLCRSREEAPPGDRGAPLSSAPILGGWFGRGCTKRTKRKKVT

[3] = target: T2, {'v': 'CYP1A2', 'o': 'p', 'q': 'Inhibition of CYP1A2 (unknown origin)'} (Homo sapiens, UniProt P05177); assay: Inhibition of CYP1A2 (unknown origin) at 10 uM pre-incubated for 30 min followed by addition of NADPH and measured after 30 min by Luminescence based plate reader method relative to control; format: ADME; conditions: time 60 min
T2 sequence (P05177 whole entry): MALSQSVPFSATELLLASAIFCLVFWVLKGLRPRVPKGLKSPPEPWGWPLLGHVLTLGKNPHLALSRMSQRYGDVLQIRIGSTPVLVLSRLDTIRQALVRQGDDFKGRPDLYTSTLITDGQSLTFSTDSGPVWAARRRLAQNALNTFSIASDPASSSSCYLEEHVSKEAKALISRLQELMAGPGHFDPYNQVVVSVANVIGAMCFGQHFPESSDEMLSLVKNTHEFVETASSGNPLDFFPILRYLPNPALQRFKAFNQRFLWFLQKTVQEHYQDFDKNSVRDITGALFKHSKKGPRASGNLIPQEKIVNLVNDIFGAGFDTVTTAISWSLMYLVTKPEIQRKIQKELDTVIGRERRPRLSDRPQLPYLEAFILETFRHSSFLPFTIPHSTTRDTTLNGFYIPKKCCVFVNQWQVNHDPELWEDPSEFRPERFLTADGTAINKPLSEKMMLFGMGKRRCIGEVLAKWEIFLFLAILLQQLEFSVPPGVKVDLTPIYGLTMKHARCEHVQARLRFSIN

[4] = target: {'v': 'CYP2C9', 'o': 'p', 'q': 'Inhibition of CYP2C9 (unknown origin)'} (Homo sapiens, UniProt P11712); assay: Inhibition of CYP2C9 (unknown origin) at 10 uM pre-incubated for 30 min followed by addition of NADPH and measured after 30 min by Luminescence based plate reader method relative to control; format: ADME; conditions: time 60 min
[5] = target: {'v': 'CYP3A4', 'o': 'p', 'q': 'Inhibition of CYP3A4 (unknown origin)'} (Homo sapiens, UniProt P08684); assay: Inhibition of CYP3A4 (unknown origin) at 10 uM pre-incubated for 30 min followed by addition of NADPH and measured after 30 min by Luminescence based plate reader method relative to control; format: ADME; conditions: time 60 min
[6] = target: T3, Histone deacetylase 8 (Homo sapiens) (UniProt Q9BY41); assay: Inhibition on human recombinant HDAC8 at 10 uM measured after 20 min by luminescence glo assay
T3 sequence (whole entry): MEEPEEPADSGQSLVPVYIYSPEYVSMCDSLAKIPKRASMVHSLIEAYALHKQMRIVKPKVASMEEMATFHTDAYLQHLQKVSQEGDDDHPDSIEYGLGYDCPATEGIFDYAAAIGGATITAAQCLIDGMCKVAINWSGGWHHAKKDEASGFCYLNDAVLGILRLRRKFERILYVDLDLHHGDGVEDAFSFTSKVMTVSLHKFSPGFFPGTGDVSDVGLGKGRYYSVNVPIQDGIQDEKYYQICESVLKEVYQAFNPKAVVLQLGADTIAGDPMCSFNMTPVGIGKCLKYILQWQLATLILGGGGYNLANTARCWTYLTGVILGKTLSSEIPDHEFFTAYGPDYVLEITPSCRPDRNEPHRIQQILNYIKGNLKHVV

[7] = target: Histone deacetylase 9 (Homo sapiens) (UniProt Q9UKV0); assay: Inhibition on human recombinant HDAC9 at 10 uM measured after 20 min by luminescence glo assay

| Structure (SMILES) | Activity (HEK293) [%] | Activity [1] [%] | inhibition [2] [%] | inhibition at 0.5 h, 10 µM [3] [%] | inhibition at 0.5 h, 10 µM [4] [%] | inhibition at 0.5 h, 10 µM [5] [%] | inhibition [6] [%] | inhibition [7] [%] |
| --- | --- | --- | --- | --- | --- | --- | --- | --- |
| Cc1c(Br)cc(C(=O)N[C@@H](C(=O)Nc2ccc3c(c2)/C(=C/c2cnc[nH]2)C(=O)N3)c2ccccc2)c(=O)n1Cc1ccc(F)c(F)c1 | < 25 | < 25 | < 30 | < 45 | < 45 | < 45 | < 30 | < 30 |
| O=C1Nc2ccc(NC(=O)[C@H](NC(=O)c3cccn(Cc4ccc(F)c(F)c4)c3=O)c3ccccc3)cc2/C1=C/c1cnc[nH]1 (stereo in doubt) | < 25 | < 25 | < 30 | – | – | – | < 30 | < 30 |
| O=C(CCNC(=O)c1cccn(Cc2ccc(F)c(F)c2)c1=O)Nc1ccc2c(c1)/C(=C/c1cnc[nH]1)C(=O)N2 | < 25 | < 25 | < 30 | > 90 | > 90 | > 90 | < 30 | < 30 |
| Cc1ccc(C(=O)NCC(=O)Nc2ccc3c(c2)/C(=C/c2cnc[nH]2)C(=O)N3)c(=O)n1Cc1ccc(F)c(F)c1 | < 25 | < 25 | < 30 | > 90 | > 90 | > 90 | < 30 | < 30 |
